Reference: patent publication US20260297060A1, “COMPOUNDS FOR THE DEGRADATION OF MUTANT BRAF” (C4 THERAPEUTICS, INC., priority 2023, published 2026)

Test system: A375 human melanoma xenografts
Assay: In vivo therapeutic efficacy in A375 human melanoma xenografts (tumor volume, T/C, TGI), Example 14
Parameters: species or system human tumor in female BALB/c nude mice
Description: Agents were tested in the A375 human melanoma xenografts. Compound 26 and Compound 141 were administered to BALB/c nude mice bearing A375 tumors from PG-DO and dosed via PO twice a day (BID) or third a day (TIP) or dosed P daily (QD) from PG-D. Dabrafenib was administered to BALB/c nude mice bearing A375 tumors from PG-D1 and dosed via P daily (QD). Compound 26 was dosed at 1.5 mg/kg (QD), 2 mg/kg (TID), 3 mg/kg (BID), 6 mg/kg (QD) and 10 mg/kg (BID) for 21 days. Compound 141 was dosed at 0.75 mg/kg (BID), 1 mg/kg (TID), 1.5 mg/kg (BID), 3 mg/kg (QD) and 5 mg/kg (BID) for 21 days. Dabrafenib was dosed at 100 mg/kg for 21 days. This study was non-GLP.
One hundred and thirty-eight female BALB/c nude Mus Musculus mice procured from Shanghai Lingchang Biological Science and Technology Co., LTD between the ages of six to eight weeks and with body weight between eighteen and twenty-two grams were used for the study. A spare mouse was also procured.
The A375 tumor cells were maintained in vitro in DMEM medium supplemented with 10% fetal bovine serum and 1% Penicillin-Streptomycin at 37° C. in an atmosphere of 5% CO2 in air. The tumor cells were routinely sub-cultured twice weekly. The cells growing in an exponential growth phase were harvested and counted for tumor inoculation.
Each mouse was inoculated subcutaneously at the right flank with A375 cells (5×10^6) in 0.2 mL of PBS supplemented with Matrigel (PBS: Matrigel=1:1) for tumor development. Animals were grouped for efficacy study on day 15 after tumor inoculation when the average tumor volume reached 220 mm^3. The test articles administration and the animal numbers in each group are shown in the above experimental Table 75.
At the time of routine monitoring, the animals were checked daily for any effects of tumor growth and treatments on normal behavior such as mobility, food and water consumption (by looking only), body weight gain/loss (body weights were measured twice weekly), eye/hair matting and any other abnormal effect as stated in the protocol. Death and observed clinical signs were recorded on the basis of the numbers of animals within each subset.
Prior to the onset of drug treatment, mice were measured for tumor size in two dimensions using a caliper, and the tumor volume (mm^3) was calculated using formula V=0.5 a×b^2 where a and b are the long and short diameters of the tumor in mm, respectively. Mice were randomized into different treatment groups based on the tumor volume.
The major endpoint was to see if the tumor growth could be delayed or mice could be cured. The tumor size was then used for calculations of T/C value. The T/C value (in percent) is an indication of antitumor effectiveness; T and C are the mean volumes of the treated and control groups, respectively on specified day.
TGI was calculated for each group using the formula: TGI (%)=[1−(Ti−T0)/(Ci−C0)]×100; Ti is the average tumor volume of a treatment group on a given day, T0 is the average tumor volume of the treatment group on the day of treatment start, Ci is the average tumor volume of the vehicle control group on the same day with Ti, and C0 is the average tumor volume of the vehicle group on the day of treatment start.
A one-way ANOVA followed by Dunnett's multiple comparison test was performed to compare tumor volume among vehicle group (Group 1) and treatment groups (Group 2-Group 12). All data were analyzed using GraphPad Prism, ns indicates p>0.05, * indicates p<0.05, ** indicates p<0.01, *** indicates p<0.001 and **** indicates p<0.0001.
Tumor growth inhibition of Compound 26, Compound 141 and dabrafenib in the treatment of female BALB/c nude mice bearing A375 xenografts was calculated based on tumor volume measured on […]. TGI and T/C were calculated respectively and the data are detailed in Table 82.

[1] = 2 mg/kg p.o. TID × 21 days, PG-D21

Question: For CCN(C)S(=O)(=O)Nc1ccc(F)c(Oc2ccc3ncn([C@H]4COC5(CCN(C6CC7(C6)CN(c6cc8c(cc6F)c(N6CCC(=O)NC6=O)nn8C)C7)CC5)C4)c(=O)c3c2)c1C#N [Compound 26, (3R)-3-[6-[2-cyano-3-[[ethyl(methyl)sulfamoyl]amino]-6-fluoro-phenoxy]-4-oxo-quinazolin-3-yl]-8-[2-[3-(2,4-dioxohexahydropyrimidin-1-yl)-5-fluoro-1-methyl-indazol-6-yl]-2-azaspiro[3.3]heptan-6-yl]-1-oxa-8-azaspiro[4.5]decane], which Tumor volume (1.5 mg/kg p.o. BID x 21 days, day 0, mean ± SEM) is on record?
Answer: The Tumor volume was 220 ± 16 mm^3.

Question: And the Tumor volume (1.5 mg/kg p.o. BID x 21 days, day 4, mean ± SEM)?
Answer: The Tumor volume was 249 ± 21 mm^3.

Question: And the Tumor volume (1.5 mg/kg p.o. BID x 21 days, day 7, mean ± SEM)?
Answer: Its Tumor volume is 227 ± 23 mm^3.

Question: And the Tumor volume (1.5 mg/kg p.o. BID x 21 days, day 11, mean ± SEM)?
Answer: Its Tumor volume is 210 ± 26 mm^3.

Question: And the Tumor volume (1.5 mg/kg p.o. BID x 21 days, day 14, mean ± SEM)?
Answer: The Tumor volume was 204 ± 26 mm^3.

Question: What about the Tumor volume (1.5 mg/kg p.o. BID x 21 days, day 18, mean ± SEM) of the same molecule?
Answer: Its Tumor volume is 271 ± 44 mm^3.

Question: And the Tumor volume (1.5 mg/kg p.o. BID x 21 days, day 21, mean ± SEM)?
Answer: The Tumor volume was 400 ± 70 mm^3.

Question: What about the Tumor volume (1.5 mg/kg p.o. BID x 21 days, day 25 (dosing-free regrowth), mean ± SEM) of the same molecule?
Answer: Its Tumor volume is 730 ± 94 mm^3.

Question: And the Tumor volume (1.5 mg/kg p.o. BID x 21 days, day 28 (dosing-free regrowth), mean ± SEM)?
Answer: Its Tumor volume is 1006 ± 99 mm^3.

Question: And the Tumor volume (1.5 mg/kg p.o. BID x 21 days, day 32 (dosing-free regrowth), mean ± SEM)?
Answer: The Tumor volume was 1224 ± 99 mm^3.

Question: What about the Tumor volume (1.5 mg/kg p.o. BID x 21 days, day 35 (dosing-free regrowth), mean ± SEM) of the same molecule?
Answer: Its Tumor volume is 1497 ± 94 mm^3.

Question: What about the Tumor volume (1.5 mg/kg p.o. BID x 21 days, day 39 (dosing-free regrowth), mean ± SEM) of the same molecule?
Answer: Its Tumor volume is 1978 ± 148 mm^3.

Question: And the Tumor volume (1.5 mg/kg p.o. BID x 21 days, day 42 (dosing-free regrowth), mean ± SEM)?
Answer: The Tumor volume was 2420 ± 205 mm^3.

Question: What about the Tumor volume (1.5 mg/kg p.o. BID x 21 days, day 46 (dosing-free regrowth), mean ± SEM) of the same molecule?
Answer: Its Tumor volume is 2759 ± 274 mm^3.

Question: And the Tumor volume (1.5 mg/kg p.o. BID x 21 days, day 49 (dosing-free regrowth), mean ± SEM)?
Answer: Its Tumor volume is 2514 ± 268 mm^3.

Question: And the Tumor volume (1.5 mg/kg p.o. BID x 21 days, day 53 (dosing-free regrowth), mean ± SEM)?
Answer: Its Tumor volume is 3087 ± 444 mm^3.

Question: And the Tumor volume (1.5 mg/kg p.o. BID x 21 days, day 56 (dosing-free regrowth))?
Answer: The Tumor volume was 3153 mm^3.

Question: What about the Tumor volume (2 mg/kg p.o. TID x 21 days, day 0, mean ± SEM) of the same molecule?
Answer: The Tumor volume was 220 ± 15 mm^3.

Question: And the Tumor volume (2 mg/kg p.o. TID x 21 days, day 4, mean ± SEM)?
Answer: Its Tumor volume is 172 ± 13 mm^3.

Question: And the Tumor volume (2 mg/kg p.o. TID x 21 days, day 7, mean ± SEM)?
Answer: Its Tumor volume is 99 ± 9 mm^3.

Question: And the Tumor volume (2 mg/kg p.o. TID x 21 days, day 11, mean ± SEM)?
Answer: Its Tumor volume is 68 ± 8 mm^3.

Question: And the Tumor volume (2 mg/kg p.o. TID x 21 days, day 14, mean ± SEM)?
Answer: Its Tumor volume is 51 ± 7 mm^3.

Question: What about the Tumor volume (2 mg/kg p.o. TID x 21 days, day 18, mean ± SEM) of the same molecule?
Answer: Its Tumor volume is 36 ± 4 mm^3.

Question: And the Tumor volume (2 mg/kg p.o. TID x 21 days, day 21, mean ± SEM)?
Answer: The Tumor volume was 41 ± 5 mm^3.

Question: And the Tumor volume (2 mg/kg p.o. TID x 21 days, day 25 (dosing-free regrowth), mean ± SEM)?
Answer: Its Tumor volume is 85 ± 16 mm^3.

Question: And the Tumor volume (2 mg/kg p.o. TID x 21 days, day 28 (dosing-free regrowth), mean ± SEM)?
Answer: Its Tumor volume is 156 ± 32 mm^3.

Question: What about the Tumor volume (2 mg/kg p.o. TID x 21 days, day 32 (dosing-free regrowth), mean ± SEM) of the same molecule?
Answer: The Tumor volume was 292 ± 57 mm^3.

Question: And the Tumor volume (2 mg/kg p.o. TID x 21 days, day 35 (dosing-free regrowth), mean ± SEM)?
Answer: The Tumor volume was 441 ± 86 mm^3.

Question: What about the Tumor volume (2 mg/kg p.o. TID x 21 days, day 39 (dosing-free regrowth), mean ± SEM) of the same molecule?
Answer: Its Tumor volume is 754 ± 156 mm^3.

Question: What about the Tumor volume (2 mg/kg p.o. TID x 21 days, day 42 (dosing-free regrowth), mean ± SEM) of the same molecule?
Answer: Its Tumor volume is 980 ± 198 mm^3.

Question: And the Tumor volume (2 mg/kg p.o. TID x 21 days, day 46 (dosing-free regrowth), mean ± SEM)?
Answer: The Tumor volume was 1320 ± 265 mm^3.

Question: And the Tumor volume (2 mg/kg p.o. TID x 21 days, day 49 (dosing-free regrowth), mean ± SEM)?
Answer: The Tumor volume was 1646 ± 332 mm^3.

Question: And the Tumor volume (2 mg/kg p.o. TID x 21 days, day 53 (dosing-free regrowth), mean ± SEM)?
Answer: The Tumor volume was 2216 ± 435 mm^3.

Question: What about the Tumor volume (2 mg/kg p.o. TID x 21 days, day 56 (dosing-free regrowth), mean ± SEM) of the same molecule?
Answer: Its Tumor volume is 2482 ± 579 mm^3.

Question: And the “Tumor Size on PG-D21 (Mean ± SEM)” value (2 mg/kg p.o. TID × 21 days)?
Answer: Its value is 41 ± 5 mm^3.

Question: And the T/C [1]?
Answer: Its T/C is 2.2%.

Question: What about the TGI [1] of the same molecule?
Answer: The TGI was 110.8%.

Question: What about the Tumor volume (3 mg/kg p.o. BID x 21 days, day 0, mean ± SEM) of the same molecule?
Answer: Its Tumor volume is 220 ± 15 mm^3.

Question: What about the Tumor volume (3 mg/kg p.o. BID x 21 days, day 4, mean ± SEM) of the same molecule?
Answer: Its Tumor volume is 219 ± 16 mm^3.

Question: What about the Tumor volume (3 mg/kg p.o. BID x 21 days, day 7, mean ± SEM) of the same molecule?
Answer: The Tumor volume was 136 ± 11 mm^3.

Question: What about the Tumor volume (3 mg/kg p.o. BID x 21 days, day 11, mean ± SEM) of the same molecule?
Answer: The Tumor volume was 83 ± 6 mm^3.

Question: And the Tumor volume (3 mg/kg p.o. BID x 21 days, day 14, mean ± SEM)?
Answer: Its Tumor volume is 52 ± 5 mm^3.

Question: What about the Tumor volume (3 mg/kg p.o. BID x 21 days, day 18, mean ± SEM) of the same molecule?
Answer: The Tumor volume was 45 ± 7 mm^3.

Question: And the Tumor volume (3 mg/kg p.o. BID x 21 days, day 21, mean ± SEM)?
Answer: Its Tumor volume is 48 ± 9 mm^3.

Question: And the Tumor volume (3 mg/kg p.o. BID x 21 days, day 25 (dosing-free regrowth), mean ± SEM)?
Answer: The Tumor volume was 129 ± 75 mm^3.

Question: And the Tumor volume (3 mg/kg p.o. BID x 21 days, day 28 (dosing-free regrowth), mean ± SEM)?
Answer: The Tumor volume was 258 ± 165 mm^3.

Question: And the Tumor volume (3 mg/kg p.o. BID x 21 days, day 32 (dosing-free regrowth), mean ± SEM)?
Answer: The Tumor volume was 423 ± 234 mm^3.

Question: What about the Tumor volume (3 mg/kg p.o. BID x 21 days, day 35 (dosing-free regrowth), mean ± SEM) of the same molecule?
Answer: The Tumor volume was 578 ± 289 mm^3.

Question: And the Tumor volume (3 mg/kg p.o. BID x 21 days, day 39 (dosing-free regrowth), mean ± SEM)?
Answer: Its Tumor volume is 878 ± 311 mm^3.

Question: What about the Tumor volume (3 mg/kg p.o. BID x 21 days, day 42 (dosing-free regrowth), mean ± SEM) of the same molecule?
Answer: Its Tumor volume is 1129 ± 390 mm^3.
